From US11639348B2, “Compositions and methods for neuraminidase detection and quantification” (priority 2018, dated 2023)

System: A/Brisbane/59/2007 H1N1 Oseltamivir-Resistant NA
Assay type: biochemical, influenza A/Brisbane/59/2007 H1N1 Oseltamivir-Resistant
Settings: pH 7.6

## CC(=O)NC1C(NC(=N)N)C(F)C(Oc2c(F)cc3c(C)cc(=O)oc3c2F)(C(=O)O)OC1[C@H](O)[C@H](O)CO (stereo partly drawn) [compound 3, 5-Acetamido-4-guanidine-3-fluoro-3,4,5-trideoxy-2α-(4-methyl-6,8-difluoromethylumbelliferyl)-D-glycero-D-galactononulopyranosylnoic acid]
  Km: 41.6 µM
  kcat: 35.7 s⁻¹
